System: 885512-296-R-J2-PDC complex spheroid viability
Assay: Anticancer human tumor 885512-296-R-J2-PDC patient-derived breast carcinoma cell line growth inhibition [GQUAD]
Details: for IC50: curve of first compound; for viability, T/C: stronger effect = lower value
In short: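 Viability of tumor cells grown as complex spheroids with endothelial and stromal cells, exposed to drug combinations. Top concentration at or near clinical Cmax (else 10 microM), diluted in half-log increments.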
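Also: spheroids exposed to the compounds for one week.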
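For viability, T/C in this document: percent of tumor spheroid viability relative to DMSO vehicle control wells.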

Work on `C=CC(=O)N1CCN(c2nc(=O)n(-c3c(C)ccnc3C(C)C)c3nc(-c4c(O)cccc4F)c(F)cc23)C(C)C1` (configuration not stated) + Cc1cnc(CNC(=O)c2c(=O)c3ccc(N4CCCN(C)CC4)nc3n3c2sc2ccccc23)cn1 yielded an IC50 (second compound 0.0316 µM) greater than 10000 nM, an IC50 (second compound 0.1 µM) greater than 10000 nM and an IC50 (second compound 0.316 µM) of less than 31.6 nM. For the same compound, the IC50 (second compound 1 µM) was less than 31.6 nM, the IC50 (second compound 3.16 µM) was less than 31.6 nM and the IC50 (second compound 10 µM) was less than 31.6 nM. For the same compound, the viability, T/C (second compound 0.0316 µM, first compound 0.0316 µM) was 90.5%, the viability, T/C (second compound 0.0316 µM, first compound 0.1 µM) was 81.3% and the viability, T/C (second compound 0.0316 µM, first compound 0.316 µM) was 107%. For the same compound, the viability, T/C (second compound 0.0316 µM, first compound 1 µM) was 105%, the viability, T/C (second compound 0.0316 µM, first compound 3.16 µM) was 99.1% and the viability, T/C (second compound 0.0316 µM, first compound 10 µM) was 76.9%. For the same compound, the viability, T/C (second compound 0.1 µM, first compound 0.0316 µM) was 60.9%, the viability, T/C (second compound 0.1 µM, first compound 0.1 µM) was 66% and the viability, T/C (second compound 0.1 µM, first compound 0.316 µM) was 68.5%. The viability, T/C (second compound 0.1 µM, first compound 1 µM) was 67.5%, the viability, T/C (second compound 0.1 µM, first compound 3.16 µM) was 79.5% and the viability, T/C (second compound 0.1 µM, first compound 10 µM) was 47.3%. For the same compound, the viability, T/C (second compound 0.316 µM, first compound 0.0316 µM) was 35.9%, the viability, T/C (second compound 0.316 µM, first compound 0.1 µM) was 29.3% and the viability, T/C (second compound 0.316 µM, first compound 0.316 µM) was 33.8%. It also gave a viability, T/C (second compound 0.316 µM, first compound 1 µM) of 31.1%, a viability, T/C (second compound 0.316 µM, first compound 3.16 µM) of 33.6% and a viability, T/C (second compound 0.316 µM, first compound 10 µM) of 24%. It also gave a viability, T/C (second compound 1 µM, first compound 0.0316 µM) of 23.4%, a viability, T/C (second compound 1 µM, first compound 0.1 µM) of 30.9% and a viability, T/C (second compound 1 µM, first compound 0.316 µM) of 33.2%. The viability, T/C (second compound 1 µM, first compound 1 µM) was 24.1%, the viability, T/C (second compound 1 µM, first compound 3.16 µM) was 22.6% and the viability, T/C (second compound 1 µM, first compound 10 µM) was 28.3%. For the same compound, the viability, T/C (second compound 3.16 µM, first compound 0.0316 µM) was 34.5%, the viability, T/C (second compound 3.16 µM, first compound 0.1 µM) was 31.4% and the viability, T/C (second compound 3.16 µM, first compound 0.316 µM) was 19.4%. For the same compound, the viability, T/C (second compound 3.16 µM, first compound 1 µM) was 27%, the viability, T/C (second compound 3.16 µM, first compound 3.16 µM) was 29.8% and the viability, T/C (second compound 3.16 µM, first compound 10 µM) was 32.3%. It also gave a viability, T/C (second compound 10 µM, first compound 0.0316 µM) of 0.14%, a viability, T/C (second compound 10 µM, first compound 0.1 µM) of 0.2% and a viability, T/C (second compound 10 µM, first compound 0.316 µM) of 0.24%. For the same compound, the viability, T/C (second compound 10 µM, first compound 1 µM) was 0.2%, the viability, T/C (second compound 10 µM, first compound 3.16 µM) was 0.2% and the viability, T/C (second compound 10 µM, first compound 10 µM) was 1.55%.
